Laboratory results published in article PMC11655065, “Antimicrobial activity of iron-depriving pyoverdines against human opportunistic pathogens” (eLife, 2024).
≈ marks a conversion by molar mass, not a printed value. Read-outs that look alike come from different tables or passages of the source. Square brackets hold non-standard residues; d marks the D form. Side chains are listed from the residue outwards. Peptide text beside a SMILES is read from it. * marks the point of attachment. ξ: configuration not given here. X1 = O=C(O)CCC(=O)NC1=Cc2cc(O)c(O)cc2N2C1=NCCC2C(=O)*; NH(1-OH-2-oxopiperidin-3-yl) = O=C1C(N*)CCCN1O; ξAsp(3ξ-OH) = NC(C(=O)O)C(O)C(=O)O

Assays:
K. pneumoniae [1] = assay: Dose–response growth inhibition in CAA medium; assay type: cell-based, Klebsiella pneumoniae
Description: (§1) Pathogen overnight cultures were grown in either 8 mL tryptic soy broth (TSB; for the two S. aureus strains) or 8 mL lysogeny broth (LB; all other pathogens) in 50 mL tubes at 37°C and 220 rpm agitation. Following two washing steps with 0.8% NaCl, we adjusted the overnight cultures to an optical density at 600 nm (OD600) of 1. For overnights of environmental isolates, we followed the same procedure when working with low sample sizes, with the only difference being that culturing occurred at 28°C. For the large-scale screening experiments, we grew environmental isolates in 200 µL LB in 96-well plates shaken at 170 rpm. Cultures from plates were then directly used for experiments. For all main experiments (screen for bioactive pyoverdines and dose–response curves), we used CAA medium (1% casamino acids, 5 mM K2HPO4 * 3H2O,1 mM MgSO4*7 H2O, 25 mM HEPES buffer). This medium contains low levels of iron, triggering pyoverdine production ([Cunrath et al., 2016]).
(§2) To determine the inhibition potential of crude- and HPLC-purified pyoverdines, as well as ferribactin, we subjected A. baumannii. K. pneumoniae, P. aeruginosa, and S. aureus to serially diluted extracts. For this, the extracts were dissolved in CAA medium, filter sterilized, and diluted in the same medium. Bacterial overnight cultures were grown and prepared as described above and added to a total of 200 µL medium on a 96-well plate with four replicates per extract dilution. […] We incubated the plates at 37°C statically in the plate reader and measured the OD600 every 15 min for 24 hr. Before each measurement, plates were shaken for 15 s. We repeated the experiment up to five times with different initial extract starting concentrations. This was done to ensure that the full dose response to pyoverdine was captured. Thus, sample size per individual extract concentration varied between 4 and 20 replicates. We subtracted the blank values and the background values caused by the treatment of the respective extract concentration from the measured growth data and calculated the integral (area under the growth curve) using the R package Growthcurver ([Sprouffske and Wagner, 2016]). We then expressed growth relative to the control medium, where bacteria grew in CAA without extract or antibiotic addition. Finally, we plotted extract/antibiotic concentration vs. relative growth and fitted dose–response curves (see below).

in vitro = assay type: cell-based; settings: sheep
Description: To determine the hemolytic activity of pyoverdines, we quantified sheep erythrocyte hemolysis at different pyoverdine concentrations. We first centrifuged 25 mL of fresh sheep blood (Chemie Brunschwig AG, Switzerland) in a 50 mL tube at 1500 × g for 5 min at 4°C. Plasma was then gently aspirated, replaced by PBS, and tubes were gently inverted to mix. This washing procedure was repeated three times. Pyoverdines were diluted in PBS to final relative concentrations of 1, 0.5, 0.25, 0.2, 0.02, and 0.002. PBS and 0.1% Triton X-100 (Sigma-Aldrich) served as negative and positive control, respectively. 100 µL erythrocyte solution was mixed with either 100 µL pyoverdine solution or the controls in a 96-well plate in triplicates. Following an incubation at 37°C and 120 rpm for 1 hr, the plate was centrifuged at 1036 × g for 5 min at 4°C. Subsequently, 100 µL of the supernatant were transferred to a new 96-well plate. Hemoglobin release was measured at 570 nm in the plate reader and the percent hemolysis was calculated relative to the positive control [% hemolysis = (OD570 of sample – negative control)/(positive control – negative control)].

A. baumannii [2] = assay: Infection model: treatment of infected larvae; assay type: in vivo, Galleria mellonella; settings: injected 4 hr post infection
Description: (§3) We tested the efficacy of pyoverdine to treat infections in larvae of the host model G. mellonella. All larvae were ordered from a local vendor (Bait Express GmbH, Basel, Switzerland) and stored without food at 16°C in the dark for up to 3 days. In a first step, we determined the mean weight of 336 final instar G. mellonella larvae (mean = 435 mg). For all subsequent experiments, we weighed the larvae and only used individuals with a mean weight ±20% (range: 340–530 mg). Larvae were immobilized on ice for 15 min, surface-sterilized with 70% ethanol, and randomly distributed to individual wells on 24-well plates. Ten larvae were used per infection–treatment combination. To inject bacteria and administer treatments, we used sterile needles (Sterican 26G, 0.45 × 12 mm [Braun]) and syringes (1 mL injekt-F [Braun]) attached to a syringe pump (New Era Pump Systems Inc, model NE-300) set to a flow rate of 5 mL/hr. For both infection and treatment delivery, a volume of 10 µL per larvae was injected between the posterior larval prolegs.
(§4) On the pathogen side, we determined the LD50 (lethal dose, killing 50% of the larvae) for A. baumannii (1.8 * 10^5 CFU/larvae) and K. pneumoniae (8.9 * 10^5 CFU/larvae) (Figure 5—figure supplement 1). For P. aeruginosa, we use 56 CFU/larvae because all doses tested killed 100% of the larvae (Figure 5—figure supplement 1). As negative control, we administered 10 µL/larvae of sterile PBS. Following infections, larvae were individually placed in wells of 24-well plates and incubated at 37°C in the dark for 4 hr.
(§5) On the treatment side, we used pyoverdines 3A06, 3G07, and s3b09 at three concentrations that were non-toxic for the NSC-34 cells. For this, we prepared stocks of 60 mg/mL, 30 mg/mL, and 6 mg/mL of crude pyoverdines. Since the injected treatment volume was 10 µL per larvae, the final pyoverdine concentrations were 0.6 mg, 0.3 mg, and 0.06 mg per larvae, respectively. When scaling theses concentrations to the doses used for the […] dose–response curves (Figure 4), the relative pyoverdine concentrations were 0.1, 0.05, and 0.01. Pyoverdine treatments were administered 4 hr after the infection through injections. Prior to treatment, larvae were immobilized on ice for 15 min. We also applied treatments to larvae infected with sterile PBS to quantify potential negative effects of the treatment in the absence of an infection. Following treatment, larvae were put back to their allocated well of the 24-well plate and kept at 37°C in the dark.
(§6) From the 12th hour post infection (hpi) onward, we regularly checked the survival of all larvae for a total of 48 hpi. Specifically, larvae were poked with a pipette tip and individuals not responding to the physical stimulation were considered dead. […]

K. pneumoniae [3] = assay: Infection model: treatment of infected larvae; assay type: in vivo, Galleria mellonella
Description: as §3, §4, §5, §6

[4] = cited from earlier work; for iron association constant: ref Bohac et al., 2019, Shapiro and Wencewicz, 2016, Sheldon and Skaar, 2020
A. baumannii [5] = assay: Dose–response growth inhibition in CAA medium; assay type: cell-based, Acinetobacter baumannii; settings: for inhibition of A. baumannii with iron supplementation: crude pyoverdine
Description: as §1, §2

S. aureus JE2 = assay: Dose–response growth inhibition in CAA medium; assay type: cell-based, Staphylococcus aureus
Description: as §1, with “This medium contains low levels of iron, triggering pyoverdine production ([Cunrath et al., 2016]).” left out
(§7) To determine the inhibition potential of crude- and HPLC-purified pyoverdines, as well as ferribactin, we subjected A. baumannii. […] We incubated the plates at 37°C statically in the plate reader and measured the OD600 every 15 min for 24 hr. […] We subtracted the blank values and the background values caused by the treatment of the respective extract concentration from the measured growth data and calculated the integral (area under the growth curve) using the R package Growthcurver ([Sprouffske and Wagner, 2016]). […]

P. aeruginosa PAO1 = assay: Dose–response growth inhibition in CAA medium; assay type: cell-based, Pseudomonas aeruginosa; settings: HPLC-purified ferribactin, concentration gradient
Description: as §1, with “This medium contains low levels of iron, triggering pyoverdine production ([Cunrath et al., 2016]).” left out
as §7

P. aeruginosa = settings: 2012, 2013, cited from earlier work
A. baumannii [6] = tested on: A. baumannii; design: method as in Visca et al., 2013; de Léséleuc et al., 2012; settings: ref Visca et al., 2013; de Léséleuc et al., 2012; cited from earlier work
[7] = HPLC-purified ferribactin, concentration gradient

CC(O)C(NC(=O)C(CO)NC(=O)C(NC(=O)C(N)CCCCNC(=O)C(CC(=O)O)NC(=O)C1CCN=C2C(NC(=O)CCC(=O)O)=Cc3cc(O)c(O)cc3N21)C(O)C(=O)O)C(=O)NC(CO)C(=O)NC(CCCCN)C(=O)NC1CCCN(O)C1=O (stereo not shown) [pyoverdine 3A06] (H-K([Asp-X1])[ξAsp(3ξ-OH)]STSK-{NH(1-OH-2-oxopiperidin-3-yl)}; configuration not given here)
growth reduction (model fit) (K. pneumoniae [1]; crude-purified pyoverdine): 9–12%
hemolysis at 1 h, 1 relative concentration (in vitro): 2.01%
reduction of the risk of death (hazard) vs untreated infection (A. baumannii [2]; relative concentration 0.05, 48 hr, Cox regression): 57.9%
reduction of the risk of death (hazard) vs untreated infection (K. pneumoniae [3]; relative concentration 0.01, injected 4 hr post infection, 48 hr, Cox regression): 51.5%

CC(=O)N(O)CCCCCNC(=O)CCC(=O)N(O)CCCCCNC(=O)CCC(=O)N(O)CCCCCN [desferoxamine]
iron affinity ([4]; ref Elalfy et al., 2023): 10^27 M^–1

CC(NC(=O)C(NC(=O)C(CO)NC(=O)C(NC(=O)C(N)CCCCNC(=O)C(CC(=O)O)NC(=O)C1CCN=C2C(NC(=O)CCC(=O)O)=Cc3cc(O)c(O)cc3N21)C(O)C(=O)O)C(C)O)C(=O)NC(C(=O)NC(CCCCN)C(=O)NC1CCCN(O)C1=O)C(C)O (stereo not shown) [pyoverdine s3b09] (H-K([Asp-X1])[ξAsp(3ξ-OH)]STATK-{NH(1-OH-2-oxopiperidin-3-yl)}; configuration not given here)
IC50 (A. baumannii [5]; Acinetobacter baumannii, HPLC-purified pyoverdine, CAA medium, growth relative to untreated control): 5.04 µg/mL (≈ 3.73 µM)
inhibition of A. baumannii with iron supplementation (A. baumannii [5]; CAA medium + 40 µM FeCl3): greatly reduced
inhibition of A. baumannii with iron supplementation (A. baumannii [5]; CAA medium + 200 µM FeCl3): completely stalled
IC50 (S. aureus JE2; Staphylococcus aureus, JE2, HPLC-purified pyoverdine, growth relative to untreated control): 12.2 µg/mL (≈ 9.01 µM)
growth reduction (model fit) (K. pneumoniae [1]; HPLC-purified pyoverdine): 9–12%
growth reduction (model fit) (K. pneumoniae [1]; crude-purified pyoverdine): 9–12%
hemolysis at 1 h, 1 relative concentration (in vitro): 5.92%
reduction of the risk of death, significance (A. baumannii [2]; same tendency observed, z = –1.496, p=0.135): not significant
relationship between pyoverdine concentration and time-to-death (K. pneumoniae [3]; relative concentrations 0-0.1, quadratic term significant): hump-shaped

fimsbactin
iron association constant [4]: 10^27 M^–1

ferribactin [reference compound]
growth inhibition (A. baumannii [5]; HPLC-purified ferribactin, concentration gradient, CAA medium): no growth inhibition
growth inhibition (S. aureus JE2; [7]): no growth inhibition
growth inhibition (K. pneumoniae [1]; [7]): no growth inhibition
growth inhibition (P. aeruginosa PAO1): no growth inhibition

acinetobactin
iron association constant [4]: 10^26 M^–1

pyoverdine
iron affinity (Ka, association constant) ([4]; ref Meyer and Abdallah, 1978): 10^32 M^–1

Cc1c(O)c(=O)ccn1C [deferiprone]
minimum inhibitory concentration (MIC) relative to plasma levels in human therapy (P. aeruginosa; ref Thompson et al., Visca et al.): up to 36.7 times
growth suppression at sub-MIC levels (P. aeruginosa; ref Visca et al., de Léséleuc et al.): only partially suppressed the growth
growth suppression at sub-MIC levels (A. baumannii [6]): only partially suppressed the growth

O=C(N[C@H]1COC(=O)[C@@H](NC(=O)c2cccc(O)c2O)COC(=O)[C@@H](NC(=O)c2cccc(O)c2O)COC1=O)c1cccc(O)c1O [enterobactin]
iron affinity ([4]; ref Harris et al., 1979): 10^52 M^–1
